Key:
acetic acid writhing = experiment: Analgetic activity against chemical stimulation of acetic acid (writhing); format: in vivo, mouse (ICR female); conditions: Mus musculus, po, 30 min before 0.6% acetic acid, read-out: I.R. of writhing
Excerpt: (§1) Rate of inhibition (I.R.) (%)=(1-T/C)×100
T represents the average number of writhing of the group of mice administered with the present compound and injected with acetic acid, and C represents the average number of writhing of the group of mice only injected with acetic acid (control).

level of blood sugar = experiment: Anti-hyperglycemia activity (reduction of blood sugar level); format: in vivo, rat (Wistar, streptozotocin); conditions: oral, 300 mg/kg
Experimental: A group of Wistar rats to which at first streptozotocin was interperitoneally administered at a rate of 60 mg/kg and of which the positivity of glycosuria was confirmed after a week of the administration and to which regular insulin was further administered and of which the reduction of levels of glucose in urine and blood was once confirmed, however, of which hyperglycemia and hyperglycosuria were again confirmed after a few days was chosen and used as model animals of glycosuria in the following test. After orally administering each of the present compounds to the model animals at a dose of 300 mg/kg body weight, as a solution or dispersion in distilled water, the blood was collected two times, respectively after 3 and 6 hours of the administration.

beta-lipoprotein = experiment: Anti-hyperlipemia activity, beta-lipoprotein in blood; format: in vivo, rabbit (Japanese white male); conditions: oral, 300 mg/kg once
Experimental: (§2) Japanese white male rabbits were fed for 3 months with a solid diet containing 1% of cholesterol taken ad lib, and after confirming the raised lipid content of the serum of the rabbits, they were utilized as model animals suffering from experimental arteriosclerosis. Each of the present compounds was administered orally as a solution or dispersion in distilled water to the experimental animals of each group at a dose rate of 300 mg/kg once, and blood samples were taken at a predetermined time interval from the auricular vein of each animal. The content of cholesterol in the blood specimen was traced as the time passed by, with an enzymatic method, and the content of beta-lipoprotein in the same blood specimen was traced with a colorimetry. Each value in Table 7 is the difference between the level just before administration and the level after 3 or 6 hours of the administration.

blood pressure = experiment: Anti-hypertension activity (reduction of blood pressure); format: in vivo, rat (spontaneous hypertension); conditions: oral, 300 mg/kg
Experimental: Rats of spontaneous hypertension were orally administered with each of the present compounds as a solution or dispersion in distilled water at a dose rate of 300 mg/kg body weight. After 3 and 6 hours of the administration, the blood pressure of each rat was determined, and the difference between the above-determined value and the value just before the administeration was used as the index of the activity of reducing the blood pressure of the compound.

[1] = tested on: pseudo-escaping reaction to tail pressure; experiment: Analgetic activity against mechanical stimulation of pressure; format: in vivo, mouse (ICR female); conditions: oral, 1000 mg/kg
carrageenin edema = experiment: Anti-Carrageenin edema activity; format: in vivo, rat; conditions: Rattus norvegicus, po, 1000 mg/kg once, read-out: I.R. against carrageenin edema
Experimental: After orally administering each of the present compounds forcibly to each group of rats, composed of 10 animals, as a solution or dispersion in distilled water at a dose of 1000 mg/kg once, 0.1 ml of an aqueous dispersion of 1% carrageenin in aqueous physiological saline solution was injected into the foot pad of the right hind leg of the administered animal following Van Arman et al. (1963). Thereafter, the thickness of the foot pad was measured at a time interval to find the rate of inhibiting of the swelling of the foot pad according to the following formula:
as §1
T means the average volume of the foot pad of the animals administered with one of the present compounds and carrageenin, and
C means that of the animal not administered with the present compound, however, administered with carrageenin.

exudation = experiment: Anti-exudation activity (air pouch, croton oil); format: in vivo, rat; conditions: 5 days; for inhibition in vivo at 1000 mg/kg/day: Rattus norvegicus, po, 144 h, read-out: I.R. against exudation
Experimental: Following the method of Baris et al. (1965), air was injected subcutaneously into the back of groups of rats, each group consisting of 6 animals to make an air pouch, and 0.5 ml of sesame oil containing 1% by weight of croton oil was injected into the air pouch. Each of the present compounds was orally administered forcibly to each of the groups of rats as a solution or dispersion in distilled water at a dose rate of 1000 mg/kg/day for continued five days. The amount of liquid exudated into the air pouch was measured on 6th day of the operation. The rate of inhibiting the exudation of the liquid was obtained by the same manner as in (5-2) and the results are shown also in Table 8.

in vivo = conditions: mouse, in vivo, po, mice, 7 days observation, read-out: LD50, acute oral toxicity
[2] = tested on: pyrexia (Saccharomyces cerevisiae); experiment: Anti-pyrexia activity (yeast-induced); format: in vivo; conditions: Rattus norvegicus, oral, read-out: Rate of inhibiting pyrexia (I.R.)
Experimental: Following the method of Winter et al. (1961), an aqueous dispersion of 20% by weight of Saccharomyces cerevisiae was subcutaneously injected into groups of rats, each group consisting of 6 animals, and after 10-hour fasting, 1000 mg/kg of each of the present compounds was orally administered to the rat as a solution of dispersion in distilled water, and then the rectal temperature of the rat was measured at a predetermined interval of time to find the lowest temperature.
The anti-pyrexia activity of each compound was obtained from the following formula: […]
Anti-pyrexia activity represented by the rate of inhibition (I.R.)
C2 represents the average rectal temperature of negative control (non-treatment), not injected with the yeast and not administered with the present compound,
C1 represents the average temperature of positive control, injected with the yeast and not administered with the compound and T represents the temperature of tested animals, injected with the yeast and administered with the present compound.

cotton pellet granuloma = experiment: Anti-granuloma activity (cotton pellet); format: in vivo, rat; conditions: Rattus norvegicus, po, 192 h, 7 days, read-out: I.R. against cotton pellet edema
Experimental: Following the method of Winter et al. (1963), each two cotton wool pellets, each weighing 30±1 mg, were implanted into the back of each rats of groups of rats, each group consisting of 6 animals, at the positions of mutually symmetrical concerning the median line of the rat. To these groups of the thus operated rats, the present compounds were respectively administered orally and forcibly as a solution or dispersion in distilled water for 7 continuous days, once a day at a dose of 1000 mg/kg/day. On 8th day of the implantation, the granuloma was extirpated and the dry weight of the granuloma was measured, the rate of inhibiting the proliferation of granuloma being obtained as in (5-1) being shown in Table 8.

Sarcoma-180 = experiment: Anti-tumour activity against Sarcoma-180; format: in vivo, mouse (ICR-JCL); conditions: Mus musculus, Sarcoma-180, po, 600 h, 10 times every other day, tumour weight on 25th day, read-out: Antitumour activity, inhibiting rate (I.R.)
Experimental: Sarcoma-180 was transplanted into the axillary part of ICR-JCL mice at a rate of 1×10^6 cells/animal, and after 24 hours of transplantation, each of the present compounds as a solution or dispersion in sterilized physiological saline solution was orally administered to each of the transplanted mice 10 times every other day at a dose of 500 mg/kg/time. On 25th day of the transplantation, tumour node(s) were extirpated from all the mice to determine the weight of the tumour nodes.
Antitumour activity (activity of inhibiting the proliferation of the transplanted sarcoma) of each of the present compounds was derived by the following formula and shown in Table 6:
Antitumour activity (Inhibiting rate, I.R.)=(1-T/C)×100(%).
T represents the total weight of tumour nodes of the group of mice transplanted and administered with the present compound, and
C represents the total weight of tumour nodes of the group of mice transplanted, however, not administered with any agents.

total cholesterol = experiment: Anti-hyperlipemia activity, total cholesterol in blood; format: in vivo, rabbit (Japanese white male); conditions: oral, 300 mg/kg once; for Reduction of cholesterol level after 3 hrs.: negative = raising
Experimental: as §2

SMILES | inhibition in vivo at 1000 mg/kg (acetic acid writhing) | Reduced level of blood sugar after 3 hrs. (level of blood sugar) | Reduced level of blood sugar after 6 hrs. (level of blood sugar) | Reduction of beta-lipoprotein level after 3 hrs. (beta-lipoprotein) | Reduction of beta-lipoprotein level after 6 hrs. (beta-lipoprotein) | Reduced level of blood pressure after 3 hrs. (blood pressure) | Reduced level of blood pressure after 6 hrs. (blood pressure) | Pseudo-escapting reaction pressure [1] | Pseudo-escapting reaction time [1] | inhibition in vivo at 1000 mg/kg (carrageenin edema) | inhibition in vivo at 1000 mg/kg/day (exudation) | LD50 at 168 h (in vivo) | inhibition in vivo at 1000 mg/kg [2] | inhibition in vivo at 1000 mg/kg/day (cotton pellet granuloma) | inhibition in vivo at 500 mg/kg (Sarcoma-180) | Reduction of cholesterol level after 3 hrs. (total cholesterol) | Reduction of cholesterol level after 6 hrs. (total cholesterol) | also measured
NC(=O)c1ccccc1NC1(CO)OC[C@@H](O)[C@@H](O)[C@@H]1O (stereo partly drawn) [Compound 1, o-Aminobenzoic acid amide-N-D-fructoside] | 17% | 68 mg/dL | 92 mg/dL | 120 mg/dL | 131 mg/dL | 16 mm Hg | 19 mm Hg | 78 mmHg | 38 s | 15.6% | 17.5% | 11800 mg/kg | 41% | 6.6% | 42% | -2 mg/dL | 36 mg/dL | 
NC(=O)c1cccc(NC2O[C@H](CO)[C@@H](O[C@@H]3O[C@H](CO)[C@@H](O)[C@H](O)[C@H]3O)[C@H](O)[C@H]2O)c1 (stereo partly drawn) [Compound 2, m-aminobenzoic acid amide-N-cellobioside] | 20% | 85 mg/dL | 103 mg/dL | 108 mg/dL | 124 mg/dL | 20 mm Hg | 22 mm Hg | 84 mmHg | 42 s | 20.3% | 6.6% | > 15000 mg/kg | 36% | 6.1% | 35% | 1 mg/dL | 30 mg/dL | 
NC(=O)c1ccc(NC2OC[C@@H](O)[C@H](O)[C@H]2O)cc1 (stereo partly drawn) [Compound 3, p-aminobenzoic acid amide-N-D-xyloside] | 22% | 101 mg/dL | 115 mg/dL | 115 mg/dL | 119 mg/dL | 20 mm Hg | 24 mm Hg | 93 mmHg | 44 s | 26.5% | 19.1% | > 15000 mg/kg | 20% | 7% | 47% | 3 mg/dL | 45 mg/dL | 
NC(=O)c1ccc(NC2O[C@H](CO)[C@@H](O)[C@H](O)[C@@H]2O)cc1 (stereo partly drawn) [Compound 4, p-aminobenzoic acid amide-N-D-mannoside] | 41% | 110 mg/dL | 116 mg/dL | 123 mg/dL | 135 mg/dL | 14 mm Hg | 20 mm Hg | 96 mmHg | 45 s | 12.1% | 5.7% | 13600 mg/kg | 28% | 14.9% | 42% | 0 mg/dL | 46 mg/dL | 
C[C@@H]1OC(Nc2ccc(CC(=O)O)cc2)[C@H](O)[C@H](O)[C@H]1O (stereo partly drawn) [Compound 27, p-aminophenylacetic acid-N-L-rhamnoside] | 35% | 91 mg/dL | 90 mg/dL |  |  | 20 mm Hg | 20 mm Hg | 91 mmHg | 40 s | 5.2% |  | 13800 mg/kg |  | 23.1% | 43% |  |  | Reduction of beta-lipoprotein level after 3 hrs. (beta-lipoprotein; 300 mg/kg): 125 mg/dL; Reduction of beta-lipoprotein level after 6 hrs. (beta-lipoprotein; 300 mg/kg): 130 mg/dL; I.R. against exudation (exudation; oral, 1000 mg/kg/day): 16.5%; Reduction of cholesterol level after 3 hrs. (total cholesterol; 300 mg/kg): 1 mg/dL; Reduction of cholesterol level after 6 hrs. (total cholesterol; 300 mg/kg): 30 mg/dL

Reference: patent US4372948A, “Derivative of saccharide and physiologically active agent containing the same” (Kureha Kagaku Kogyo Kabushiki Kaisha, priority 1980, dated 1983)
